Measured values: ChEMBL document CHEMBL5500331, “Discovery of novel peptide-dehydroepiandrosterone hybrids inducing endoplasmic reticulum stress with effective in vitro and in vivo anti-melanoma activities” (Eur J Med Chem, 2024)
Active and inactive are the calls of the source. No cut-off for these calls is given here.

What was measured:
B16 [1] = assay: Antiproliferative activity against mouse B16 cells measured after 48 hrs by MTT assay; assay type: functional, cell-based; details: B16, 48 h
B16 [2] = assay: Antiproliferative activity against mouse B16 cells at 25 uM measured after 48 hrs by MTT assay relative to control; assay type: functional
BGC-823 = assay: Antiproliferative activity against human BGC-823 cells at 25 uM measured after 48 hrs by MTT assay relative to control; assay type: functional
HCT-116 = assay: Antiproliferative activity against human HCT-116 cells at 25 uM measured after 48 hrs by MTT assay relative to control; assay type: functional
[3] = Antiproliferative activity against human Prostate tumor cell line at 25 uM measured after 48 hrs by MTT assay relative to control; assay type: functional
[4] = Toxicity in Kunming mouse assessed as effect on body weight at 60 mg/kg, IG measured after 21 days; assay type: organism-based; details: in vivo, po, 504 h, time 21 day
B16 [5] = assay: Anti-melanoma activity against mouse B16 cells xenografted in Kunming mouse model assessed as inhibition of tumor weight at 60 mg/kg, IG measured every two days for 27 days relative to control; assay type: functional; parameters: scale not given: the % may be the effect or the level left; details: time 27 day
DU-145 = assay: Antiproliferative activity against human DU-145 cells at 25 uM measured after 48 hrs by MTT assay; assay type: functional, cell-based
B16 [6] = assay: Anti-melanoma activity against mouse B16 cells xenografted in Kunming mouse model assessed as reduction in tumor volume at 60 mg/kg, IG measured after 7 to 27 days; assay type: functional, organism-based; details: time 7-27 day
PC-3 = assay: Antiproliferative activity against human PC-3 cells at 25 uM measured after 48 hrs by MTT assay; assay type: functional, cell-based
B16 [7] = assay: Anti-melanoma activity against mouse B16 cells xenografted in Kunming mouse model assessed as suppression of tumor weight at 60 mg/kg, IG measured every two days for 27 days (reference value: 10.61+/-1.05g); assay type: functional; details: time 27 day
B16 [8] = assay: Anti-melanoma activity against mouse B16 cells xenografted in Kunming mouse model assessed as reduction in tumor volume at 60 mg/kg, IG measured after 5 days; assay type: functional, organism-based; details: time 5.0 day
B16 [9] = assay: Upregulation of caspase 8 expression in mouse B16 cells at 9.70 uM measured after 48 hrs by Western blot analysis; assay type: functional, cell-based; details: dose 9.7 µM
B16 [10] = assay: Upregulation of […] expression in mouse B16 cells at 9.70 uM measured after 48 hrs by Western blot analysis; assay type: functional, cell-based; details: dose 9.7 µM
B16 [11] = assay: Effect on Bcl-2 expression in mouse B16 cells at 9.70 uM measured after 48 hrs by Western blot analysis; assay type: functional, cell-based; details: dose 9.7 µM
B16 [12] = assay: Upregulation of caspase 3 expression in mouse B16 cells at 9.70 uM measured after 48 hrs by Western blot analysis; assay type: functional, cell-based; details: dose 9.7 µM
B16 [13] = assay: Induction of endoplasmic reticulum (ER) stress in mouse B16 cells assessed as effect on CHOP expression at 9.70 uM measured after 48 hrs by Western blot analysis; assay type: functional, cell-based; details: dose 9.7 µM
[14] = Induction of apoptosis in mouse B16 cells at 19.4 uM measured after 48 hrs by annexin-V/PI double staining based flow cytometry analysis relative to control; assay type: functional
[15] = Induction of apoptosis in mouse B16 cells assessed as necrosis at 19.4 uM measured after 48 hrs by annexin-V/PI double staining based flow cytometry analysis relative to control; assay type: functional
B16 [16] = assay: Anti-melanoma activity against mouse B16 cells xenografted in Kunming mouse model assessed as reduction in tumor volume at 60 mg/kg, IG measured upto 27 days; assay type: functional, organism-based; details: time <= 27.0 day
[17] = Inhibition of cell migration in mouse B16 cells at 9.70 uM measured after 48 hrs by scratch-wound healing assay relative to control; assay type: functional
B16 [18] = assay: Anti-melanoma activity against mouse B16 cells xenografted in Kunming mouse model assessed as decrease in bcl-2 level at 60 mg/kg, IG measured after 27 days by IHC staining based analysis; assay type: functional, organism-based; details: time 27.0 day
[19] = Drug metabolism in mouse plasma assessed as abiraterone Tmax at 20 mg/kg, IG; assay type: ADME, organism-based; details: in vivo, po
B16 [20] = assay: Induction of endoplasmic reticulum (ER) stress in mouse B16 cells assessed as decrease in alix expression at 9.70 uM measured after 48 hrs by Western blot analysis; assay type: functional, cell-based; details: dose 9.7 µM
[21] = Drug metabolism in mouse plasma assessed as abiraterone Cmax at 20 mg/kg, IG; assay type: ADME, organism-based; details: in vivo, po
B16 [22] = assay: Anti-melanoma activity against mouse B16 cells xenografted in Kunming mouse model assessed as increase in caspase 8 expression at 60 mg/kg, IG measured after 27 days by IHC staining based analysis; assay type: functional, organism-based; details: time 27.0 day
B16 [23] = assay: Induction of endoplasmic reticulum (ER) stress in mouse B16 cells assessed as effect on GRP78 expression at 9.70 uM measured after 48 hrs by Western blot analysis; assay type: functional, cell-based; details: dose 9.7 µM
[24] = Inhibition of cell migration in mouse B16 cells at 9.70 uM measured after 24 hrs by crystal violet staining based analysis relative to control; assay type: functional
B16 [25] = assay: Anti-melanoma activity against mouse B16 cells xenografted in Kunming mouse model assessed as increase in caspase 3 expression at 60 mg/kg, IG measured after 27 days by IHC staining based analysis; assay type: functional, organism-based; details: time 27.0 day
B16 [26] = assay: Anti-melanoma activity against mouse B16 cells xenografted in Kunming mouse model assessed as increase in bax expression at 60 mg/kg, IG measured after 27 days by IHC staining based analysis; assay type: functional, organism-based; details: time 27.0 day
[27] = Inhibition of cell invasion in mouse B16 cells at 9.70 uM measured after 24 hrs by crystal violet staining based analysis relative to control; assay type: functional
B16 [28] = assay: Downregulation of Bcl-2 expression in mouse B16 cells at 9.70 uM measured after 48 hrs by Western blot analysis; assay type: functional, cell-based; details: dose 9.7 µM

## C[C@]12CC[C@H](OC(=O)CNC(=O)CN)CC1=CC[C@@H]1[C@@H]2CC[C@]2(C)C(c3cccnc3)=CC[C@@H]12
B16 [1]
  IC50: 177 µM

## COc1ccc(C2=CC[C@H]3[C@@H]4CC=C5C[C@@H](OC(C)=O)CC[C@]5(C)[C@H]4CC[C@]23C)cn1
B16 [1]
  IC50: > 1000 µM

## CC(=O)O[C@H]1CC[C@@]2(C)C(=CC[C@@H]3[C@@H]2CC[C@]2(C)C(c4ccc(Cl)nc4)=CC[C@@H]32)C1
B16 [1]
  IC50: > 1000 µM

## CC(C)[C@H](NC(=O)CN)C(=O)O[C@H]1CC[C@@]2(C)C(=CC[C@@H]3[C@@H]2CC[C@]2(C)C(c4ccc(F)nc4)=CC[C@@H]32)C1
B16 [1]
  IC50: 3.16 µM

## CC(C)[C@H](N)C(=O)N[C@@H](C)C(=O)O[C@H]1CC[C@@]2(C)C(=CC[C@@H]3[C@@H]2CC[C@]2(C)C(O)=CC[C@@H]32)C1
B16 [2]
  Activity: 83.7%
BGC-823
  Activity: 81.6%
HCT-116
  Activity: 66%

## C[C@]12CC[C@H](OC(=O)CN)CC1=CC[C@@H]1[C@@H]2CC[C@]2(C)C(O)=CC[C@@H]12
B16 [1]
  IC50: 71.6 µM

## C[C@]12CC[C@H](O)CC1=CC[C@@H]1[C@@H]2CC[C@]2(C)C(c3ccc(F)nc3)=CC[C@@H]12
B16 [1]
  IC50: 56.4 µM

## CC(C)[C@H](N)C(=O)NCC(=O)O[C@H]1CC[C@@]2(C)C(=CC[C@@H]3[C@@H]2CC[C@]2(C)C(c4cccnc4)=CC[C@@H]32)C1
B16 [1]
  IC50: 13.4 µM

## C[C@]12CC[C@H](OC(=O)CN)CC1=CC[C@@H]1[C@@H]2CC[C@]2(C)C(c3cccnc3)=CC[C@@H]12
B16 [1]
  IC50: 221 µM

## CC(C)C[C@H](N)C(=O)O[C@H]1CC[C@@]2(C)C(=CC[C@@H]3[C@@H]2CC[C@]2(C)C(O)=CC[C@@H]32)C1
B16 [1]
  IC50: > 1000 µM

## C[C@]12CC[C@H](O)CC1=CC[C@@H]1[C@@H]2CC[C@]2(C)C(c3cccnc3)=CC[C@@H]12 [ABIRATERONE]
[3]
  Activity: 69.3%
[4]
  Activity: Toxic
B16 [5]
  Activity: 17.93%
DU-145
  Activity: Active
B16 [6]
  Activity: inactive
B16 [1]
  IC50: 106 µM
PC-3
  Activity: Active
B16 [7]
  Activity: 8.7 g
B16 [8]
  Activity: Active

## CC(C)C[C@H](NC(=O)CN)C(=O)O[C@H]1CC[C@@]2(C)C(=CC[C@@H]3[C@@H]2CC[C@]2(C)C(c4cccnc4)=CC[C@@H]32)C1
B16 [9]
  Activity: Active
B16 [10]
  Activity: Active
B16 [11]
  Activity: inactive
B16 [1]
  IC50: 30.5 µM
B16 [12]
  Activity: Active

## CC(C)[C@H](NC(=O)CN)C(=O)O[C@H]1CC[C@@]2(C)C(=CC[C@@H]3[C@@H]2CC[C@]2(C)C(O)=CC[C@@H]32)C1
B16 [1]
  IC50: 16.5 µM

## CC(C)[C@H](N)C(=O)N[C@H](C(=O)O[C@H]1CC[C@@]2(C)C(=CC[C@@H]3[C@@H]2CC[C@]2(C)C(O)=CC[C@@H]32)C1)C(C)C
B16 [1]
  IC50: 23.6 µM

## CC(C)[C@H](NC(=O)CN)C(=O)O[C@H]1CC[C@@]2(C)C(=CC[C@@H]3[C@@H]2CC[C@]2(C)C(c4cnccc4Cl)=CC[C@@H]32)C1
B16 [1]
  IC50: 3.78 µM

## C[C@]12CC[C@H](O)CC1=CC[C@@H]1[C@@H]2CC[C@]2(C)C(c3ccc(Cl)nc3)=CC[C@@H]12
B16 [1]
  IC50: 113 µM

## C[C@]12CC[C@H](OC(=O)[C@@H]3CCCN3C(=O)CN)CC1=CC[C@@H]1[C@@H]2CC[C@]2(C)C(c3cccnc3)=CC[C@@H]12
B16 [1]
  IC50: > 1000 µM

## CC(=O)O[C@H]1CC[C@@]2(C)C(=CC[C@@H]3[C@@H]2CC[C@]2(C)C(c4cccnc4)=CC[C@@H]32)C1 [ABIRATERONE ACETATE]
B16 [13]
  Activity: inactive
[14]
  Activity: 9%
[4]
  Activity: Toxic
[15]
  Activity: 49.8%
B16 [5]
  Activity: 76.42%
B16 [16]
  Activity: inactive
[17]
  inhibition at 9.7 µM: 64%
B16 [18]
  Activity: Active
B16 [9]
  Activity: Active
[19]
  Tmax: 4 h
B16 [20]
  Activity: Active
[21]
  Cmax: 681 ng/mL
DU-145
  Activity: Active
B16 [22]
  Activity: Active
B16 [10]
  Activity: Active
B16 [6]
  Activity: inactive
B16 [23]
  Activity: inactive
[24]
  inhibition at 9.7 µM: 51%
B16 [1]
  IC50: 28.7 µM
PC-3
  Activity: Active
B16 [7]
  Activity: 2.5 g
B16 [25]
  Activity: Active
B16 [26]
  Activity: Active
B16 [8]
  Activity: Active
[27]
  inhibition at 9.7 µM: 61%
B16 [28]
  Activity: Active
B16 [12]
  Activity: inactive
